Laboratory results reported in US20220220100A1 (SOLUTIA CANADA INC., priority 2019, published 2022).

Assay: Photostability: xenon arc weathering of chromophore solutions, LCMS analysis
Type: physicochemical
Details: for Ketone (%) / Minus-2HF (%) / Minus-HF (%) / Sulfone (%) / Chromophore Remaining (%): xenon arc, 82° C. bp; for Ketone (%) / Minus-2HF (%) / Minus-HF (%) / Sulfone (%): linearly interpolated to 0.5 MJ/m2 @ 340 nm; for Chromophore Remaining (%): linearly interpolated to 0.5 MJ/m2 @ 340 nm of exposure energy; for Photostability (in words): weathering experiments
From the text: Photostability (resistance to light-induced degradation) may be measured by the amount of time required for the compound, or a material comprising the compound, to degrade to a certain point under light exposure. The light exposure may be constant, or cyclic. The light transmittance or absorbance of the compound, or material comprising the compound, may be determined at both a light state and dark state prior to testing, to determine a contrast ratio. During testing, the contrast ratio may be monitored (periodically or continually), the compound or material may be determined to have failed when the contrast ratio falls outside, or below, a selected range, or when the contrast ratio decreases to a percentage of the original contrast ratio. Photostability may also be expressed with reference to a light source or with reference to a type of light.
Chromophore solutions in Rhodiasolv IRIS were prepared at 1 to 10 wt % loading. Solutions were prepared in a glovebox by charging the chromophore and Rhodiasolv IRIS to a trace-clean vial, and the solution was stirred on a hotplate at 90° C. for 2-24 hours. After cooling, the chromophore solution was injected into glass weathering cells and the fill and vent ports were sealed with a thin disc of Kalrez (FFKM Perfluorinated Elastomer) and secured with a clamp and set-screw. The weathering cells were filled and sealed inside the glove box.
Measurement of Photostability
A. Fabrication of cuvettes. Two holes of 0.8 mm diameter were drilled at opposite ends in a 75×50 mm piece of float glass using a diamond drill bit in a rotary tool. The drilled glass and a matching piece of undrilled glass were then cleaned using hot soapy water, rinsed with deionized water and acetone and then dried with compressed air. A 5 mm wide frame was cut from a sheet of 50 μm thickness EVAL EF-F using a laser engraver. The EVAL frame was placed around the perimeter of one sheet of glass and sandwiched by the second sheet of glass. The glass-EVAL-glass sandwich was secured with tape and heated under vacuum (10 mmHg) for 30 minutes at 170° C. in a vacuum bag. After cooling, a third piece of float glass was PVB laminated to the non-drilled side of the sealed glass cells using Trosifol UV Extra Protect B150 PVB (400 nm UV cut-off).
B. Xenon arc weathering protocol. Devices were exposed to simulated weathering conditions inside a Xe-3-HS xenon arc chamber, manufactured by Q-labs Inc. The samples were weathered according to the following table. The devices were exposed to these conditions continuously, with no dark or spray cycles included.
C. Analysis of weathered chromophore solutions by LCMS. The set-screws, metal clamps and Kalrez plugs were removed from the cuvette to expose the fill port. A 5 mL plastic syringe (NORM-JECT®) equipped with a tip (Precision Tips, 0.010″ RED) was inserted into one fill port and the chromophore solution was withdrawn from the cuvette. The chromophore solution was then injected into a 2 mL amber vial (part number 5182-0716, Agilent Technology) prefilled with 1.5 mL LC-MS grade acetonitrile (HiPerSolbe CHROMANORM Acetonitrile, VWR BDH Chemicals). An aliquot of the acetonitrile solution (2 μL) was injected into the LC-MS system (Agilent Infinity 1290 LC-MS system with diode array detector) through an autosampler mechanism. Species in the injected sample were separated through a reverse phase column (Zorbax SB-C18, 2.1×50 mm, 1.8 μm, operated at 40° C.), using a mixture of acetonitrile (mixed with 1% formic acid v/v ratio), methanol (HiPerSolbe CHROMANORM Methanol, VWR BDH Chemicals) and water (HiPerSolbe CHROMANORM Water, VWR BDH Chemicals) as mobile phase.

[1] = 3 wt %, interpolated to 0.5 MJ/m^2 of energy exposure at 340 nm
[2] = 1 wt %, interpolated to 0.5 MJ/m^2 of energy exposure at 340 nm
[3] = 10 wt %, interpolated to 0.5 MJ/m^2 of energy exposure at 340 nm

Row | Compound | Ketone (%) (3 wt % in Rhodiasolv IRIS) | Minus-2HF (%) (3 wt % in Rhodiasolv IRIS) | Minus-HF (%) (3 wt % in Rhodiasolv IRIS) | Sulfone (%) (3 wt % in Rhodiasolv IRIS) | Chromophore Remaining (%) (3 wt % in Rhodiasolv IRIS) | Ratio of chromophore remaining relative to S340 [1] | Photostability (in words) | Ketone (%) (10 wt % in Rhodiasolv IRIS) | Minus-2HF (%) (10 wt % in Rhodiasolv IRIS) | Minus-HF (%) (10 wt % in Rhodiasolv IRIS) | Sulfone (%) (10 wt % in Rhodiasolv IRIS) | Chromophore Remaining (%) (10 wt % in Rhodiasolv IRIS) | Ratio of chromophore remaining relative to S340 [3] | further results
1 | COc1ccc2c(C3=C(c4cc(-c5ccc(C(C)(C)C)s5)sc4-c4ccc(C(C)(C)C)s4)C(F)(F)C(F)(F)C3(F)F)c(-c3ccc(C(C)(C)C)cc3)oc2c1 | 0.0 | 1.9 | 6.9 | 0.0 | 86.9 | 0.95 | more rapid degradation compared to S340 |  |  |  |  |  |  | 
2 | COc1cc2oc(-c3ccc(C(C)(C)C)cc3)c(C3=C(c4cc(-c5cc6c(s5)C(C)(C)CCC6(C)C)sc4-c4cc5c(s4)C(C)(C)CCC5(C)C)C(F)(F)C(F)(F)C3(F)F)c2cc1OC |  |  |  |  |  |  | high photostability |  |  |  |  |  |  | Ketone (%) (1 wt % in Rhodiasolv IRIS): 3.3%; Minus-2HF (%) (1 wt % in Rhodiasolv IRIS): 0.0%; Minus-HF (%) (1 wt % in Rhodiasolv IRIS): 1.3%; Sulfone (%) (1 wt % in Rhodiasolv IRIS): 3.1%; Chromophore Remaining (%) (1 wt % in Rhodiasolv IRIS): 92.3%; Ratio of chromophore remaining relative to S340 [2]: 1.01; Sum of degradation product percentages relative to the sum of degradation product percentages for S340 [2]: 0.87
3 | COCCCOc1cc2oc(-c3ccc(C(C)(C)C)cc3)c(C3=C(c4cc(-c5cc(C(C)(C)C)cs5)sc4-c4cc(C(C)(C)C)cs4)C(F)(F)C(F)(F)C3(F)F)c2cc1OCCCOC |  |  |  |  |  |  | high photostability | 0.0 | 0.0 | 0.0 | 0.1 | 98.6 | 1.08 | Formation of the Minus-HF degradation product (in words): prevents the Minus-HF product
4 | CC(C)(C)c1ccc(-c2oc3cc(OCCN4C(=O)CCC4=O)c(OCCN4C(=O)CCC4=O)cc3c2C2=C(c3cc(-c4cc(C(C)(C)C)cs4)sc3-c3cc(C(C)(C)C)cs3)C(F)(F)C(F)(F)C2(F)F)cc1 |  |  |  |  |  |  | high photostability | 0.0 | 0.0 | 0.0 | 0.0 | 95.3 | 1.05 | 
5 | COc1cc2oc(-c3ccc(C(C)(C)C)cc3)c(C3=C(c4cc(-c5ccc(C(C)(C)C)s5)sc4-c4ccc(C(C)(C)C)s4)C(F)(F)C(F)(F)C3(F)F)c2cc1OC [Chromophore S340, 2-(4-(tert-butyl)phenyl)-3-(2-(5,5″-di-tert-butyl-[2,2′:5′,2″-terthiophen]-3′-yl)-3,3,4,4,5,5-hexafluorocyclopent-1-en-1-yl)-5,6-dimethoxybenzofuran] | 0.0 | 1.0 | 3.5 | 0.0 | 91.1 | 1.00 | acceptable photostability |  |  |  |  |  |  | 
6 | CC(C)(C)c1ccc(-c2oc3ccccc3c2C2=C(c3cc(-c4ccc(C(C)(C)C)s4)sc3-c3ccc(C(C)(C)C)s3)C(F)(F)C(F)(F)C2(F)F)cc1 [Chromophore S343, 2-(4-(tert-butyl)phenyl)-3-(2-(5,5″-di-tert-butyl-[2,2′:5′,2″-terthiophen]-3′-yl)-3,3,4,4,5,5-hexafluorocyclopent-1-en-1-yl)benzofuran] | 0.0 | 3.1 | 0.0 | 0.0 | 85.2 | 0.93 | more rapid degradation compared to S340 |  |  |  |  |  |  | 
7 | COc1ccc2oc(-c3ccc(C(C)(C)C)cc3)c(C3=C(c4cc(-c5ccc(C(C)(C)C)s5)sc4-c4ccc(C(C)(C)C)s4)C(F)(F)C(F)(F)C3(F)F)c2c1 [Chromophore S344, 2-(4-(tert-butyl)phenyl)-3-(2-(5,5″-di-tert-butyl-[2,2′:5′,2″-terthiophen]-3′-yl)-3,3,4,4,5,5-hexafluorocyclopent-1-en-1-yl)-5-methoxybenzofuran] | 0.0 | 8.0 | 25.7 | 0.0 | 65.1 | 0.71 | more rapid degradation compared to S340 |  |  |  |  |  |  | 
8 | COCCOc1cc2oc(-c3ccc(C(C)(C)C)cc3)c(C3=C(c4cc(-c5ccc(C(C)(C)C)s5)sc4-c4ccc(C(C)(C)C)s4)C(F)(F)C(F)(F)C3(F)F)c2cc1OCCOC [Chromophore S364, 2-(4-(tert-butyl)phenyl)-3-(2-(5,5″-di-tert-butyl-[2,2′:5′,2″-terthiophen]-3′-yl)-3,3,4,4,5,5-hexafluorocyclopent-1-en-1-yl)-5,6-bis(2-methoxyethoxy)benzofuran] |  |  |  |  |  |  | decreased stability | 0.6 | 2.7 | 14.9 | 0.0 | 80.4 | 0.88 | 
9 | CC(=O)Oc1cc2oc(-c3ccc(C(C)(C)C)cc3)c(C3=C(c4cc(-c5ccc(C(C)(C)C)s5)sc4-c4ccc(C(C)(C)C)s4)C(F)(F)C(F)(F)C3(F)F)c2cc1OC(C)=O [Chromophore S367, 2-(4-(tert-butyl)phenyl)-3-(2-(5,5″-di-tert-butyl-[2,2′:5′,2″-terthiophen]-3′-yl)-3,3,4,4,5,5-hexafluorocyclopent-1-en-1-yl)benzofuran-5,6-diyl diacetate] |  |  |  |  |  |  | more rapid degradation compared to S340 | 1.1 | 0.0 | 56.0 | 0.0 | 40.8 | 0.45 | 
10 | CCOC(=O)CCCOc1cc2oc(-c3ccc(C(C)(C)C)cc3)c(C3=C(c4cc(-c5ccc(C(C)(C)C)s5)sc4-c4ccc(C(C)(C)C)s4)C(F)(F)C(F)(F)C3(F)F)c2cc1OCCCC(=O)OCC [Chromophore S374, diethyl 4,4′-((2-(4-(tert-butyl)phenyl)-3-(2-(5,5″-di-tert-butyl-[2,2′:5′,2″-terthiophen]-3′-yl)-3,3,4,4,5,5-hexafluorocyclopent-1-en-1-yl)benzofuran-5,6-diyl)bis(oxy))dibutanoate] |  |  |  |  |  |  | decreased stability | 0.0 | 0.0 | 26.5 | 0.0 | 72.4 | 0.79 | 
11 | COc1cc2oc(-c3ccc(C(C)(C)C)cc3)c(C3=C(c4cc(-c5cc(C(C)(C)C)cs5)sc4-c4cc(C(C)(C)C)cs4)C(F)(F)C(F)(F)C3(F)F)c2cc1OC [Chromophore S377, 2-(4-(tert-butyl)phenyl)-3-(2-(4,4″-di-tert-butyl-[2,2′:5′,2″-terthiophen]-3′-yl)-3,3,4,4,5,5-hexafluorocyclopent-1-en-1-yl)-5,6-dimethoxybenzofuran] |  |  |  |  |  |  | high photostability |  |  |  |  |  |  | Ketone (%) (5 wt % in Rhodiasolv IRIS): 0.0%; Minus-2HF (%) (5 wt % in Rhodiasolv IRIS): 0.0%; Minus-HF (%) (5 wt % in Rhodiasolv IRIS): 0.0%; Sulfone (%) (5 wt % in Rhodiasolv IRIS): 0.0%; Chromophore Remaining (%) (5 wt % in Rhodiasolv IRIS): 100.0%; Ratio of chromophore remaining relative to S340 (5 wt %, interpolated to 0.5 MJ/m^2 of energy exposure at 340 nm): 1.10
